Molecular target: T1, hCCR4 (Homo sapiens, UniProt P51679)
T1 sequence (P51679 1-360): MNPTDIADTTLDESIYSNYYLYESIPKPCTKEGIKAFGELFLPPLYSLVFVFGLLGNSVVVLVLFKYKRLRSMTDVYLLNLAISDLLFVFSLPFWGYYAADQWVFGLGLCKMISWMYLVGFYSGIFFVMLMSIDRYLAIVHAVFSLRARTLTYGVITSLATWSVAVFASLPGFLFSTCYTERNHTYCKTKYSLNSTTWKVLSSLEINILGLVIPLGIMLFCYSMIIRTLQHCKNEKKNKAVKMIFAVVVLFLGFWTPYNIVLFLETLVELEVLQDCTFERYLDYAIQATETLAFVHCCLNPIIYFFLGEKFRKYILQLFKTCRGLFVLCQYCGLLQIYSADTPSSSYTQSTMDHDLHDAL
Test: Calcium flux assay
Type: cell-based
Conditions: Chem5-hCCR4 cells, CCL22 at EC80 of 1.5 nM, FLIPR Calcium 6 dye; read-out: Potency (IC50)
Method: Calcium Flux Assay. Compounds were evaluated in a calcium flux assay substantially performed as follows. Chem5-hCCR4 cells (EMD Millipore, Hayward, Calif.; HTS009C) were cultured under standard conditions and frozen in aliquots of 10×10^6 cells/mL. The day prior to compound testing, a vial was rapidly thawed and pipetted into 20 mL media (DMEM+10% FBS+1% Pen-Strep+1% L-glutamine). Cells were harvested by centrifugation and re-suspended in fresh culture medium. 25 μL of cell suspension was seeded into 384-well plates (Corning, Tewksbury, Mass.; CellBind with black wall/clear bottom). The plates were centrifuged at 300 g for 10 seconds and incubated overnight at 37° C. and 5% CO2. The day of compound testing, media was removed from the plates and 25 μL serum free media was added to each well. Plates were returned to the incubator for 2 h. 25 μL assay buffer (Hank's balanced salt solution+20 mM HEPES pH 7.4) containing FLIPR Calcium 6 dye (Molecular Devices, Sunnyvale, Calif.; # R8191) and probenecid (2.5 mM) was added to each well and incubated at 37° C. and 5% CO2 for 2 h. Compounds in DMSO were added to the plates using an HP D300e digital dispenser, and all wells were normalized to contain 0.25 μL (0.5%) DMSO. Plates were incubated for 1 hour at 37° C. and 5% CO2. CCL22 (Peprotech; Rockyhill, N.J.) was diluted in assay buffer containing 0.1% BSA to 7.5 nM (corresponding to 5×EC80 of 1.5 nM).
Assay plates and working solution of CCL22 were transferred to the FlexStation plate reader (Molecular Devices) at 37° C. for 5 min of equilibration. Fluorescence recordings at 485 excitation/525 emission were performed at 2.5 second intervals. At t=16 seconds, 12.5 μL of CCL22 solution was added to each well and reads continued for 30 seconds at 2.5 second intervals. The minimum fluorescence (Fmin) was calculated by averaging the reads prior to ligand addition and the change in fluorescence (ΔF) was calculated by subtracting the Fmin from the average of the reads following ligand addition. The response ΔF/Fmin was plotted as a function of the compound concentration and the IC50 values were determined by non-linear regression analysis using a 4-parameter fit in either PRISM software (GraphPad; La Jolla, Calif.) or Dotmatics Browser.

SMILES | IC50
C[C@H](c1ccc(Cl)cc1Cl)n1nc(C#N)c2ncc(N3CC(C4CCCN(C5CCOCC5)C4)C3)nc21 (mixture of isomers) [Example 62, 1-((R)-1-(2,4-dichlorophenyl)ethyl)-6-(3-((R)-1-(tetrahydro-2H-pyran-4-yl)piperidin-3-yl)azetidin-1-yl)-1H-pyrazolo[3,4-b]pyrazine-3-carbonitrile and 1-((R)-1-(2,4-dichlorophenyl)ethyl)-6-(3-((S)-1-(tetrahydro-2H-pyran-4-yl)piperidin-3-yl)azetidin-1-yl)-1H-pyrazolo[3,4-b]pyrazine-3-carbonitrile] | < 100 nM
Cc1nn([C@H](C)c2ccc(Cl)cc2Cl)c2nc(N3CC([C@@H]4CCCN(CC(=O)O)C4)C3)cnc12 (single isomer, unassigned) [Example 2] | > 500 nM
Cc1nn([C@H](C)c2ccc(Cl)cc2Cl)c2nc(N3CC([C@@H]4CCCN(CCS(N)(=O)=O)C4)C3)cnc12 (single isomer, unassigned) [Example 5] | > 500 nM
Cc1nn([C@H](C)c2ccc(Cl)cc2Cl)c2nc(N3CC([C@H]4CCCN(CCS(N)(=O)=O)C4)C3)cnc12 (single isomer, unassigned) [Example 6] | < 100 nM
Cc1nn([C@H](C)c2ccc(Cl)cc2Cl)c2nc(N3CC([C@H]4CCCN(CCC(=O)O)C4)C3)cnc12 (single isomer, unassigned) [Example 8] | < 100 nM
Cc1nn([C@H](C)c2ccc(Cl)cc2Cl)c2nc(N3CC([C@@H]4CCCN(CCC(=O)O)C4)C3)cnc12 (single isomer, unassigned) [Example 9] | > 500 nM
Cc1nn([C@H](C)c2ccc(Cl)cc2Cl)c2nc(N3CC([C@H]4CCCN(CCC(N)=O)C4)C3)cnc12 (single isomer, unassigned) [Example 13] | < 100 nM
Cc1nn([C@H](C)c2ccc(Cl)cc2Cl)c2nc(N3CC([C@@H]4CCCN(CCCO)C4)C3)cnc12 (single isomer, unassigned) [Example 15] | 100 to 500 nM
C[C@H](c1ccc(Cl)cc1Cl)n1nc(C#N)c2ncc(N3CC([C@H]4CCCN(CCCC(=O)O)C4)C3)nc21 (single isomer, unassigned) [Example 18] | < 100 nM
C[C@H](c1ccc(Cl)cc1Cl)n1nc(C#N)c2ncc(N3CC([C@@H]4CCCN(CCCC(=O)O)C4)C3)nc21 (single isomer, unassigned) [Example 19] | < 100 nM
C[C@H](c1ccc(Cl)cc1Cl)n1nc(C#N)c2ncc(N3CC([C@@H]4CCCN(CCC(N)=O)C4)C3)nc21 (single isomer, unassigned) [Example 25] | < 100 nM
C[C@H](c1ccc(Cl)cc1Cl)n1nc(C#N)c2ncc(N3CC([C@H]4CCCN(CCC(N)=O)C4)C3)nc21 (single isomer, unassigned) [Example 26] | < 100 nM
CC(O)CN1CCC[C@@H](C2CN(c3cnc4c(C#N)nn([C@H](C)c5ccc(Cl)cc5Cl)c4n3)C2)C1 (single isomer, unassigned) [Example 30] | < 100 nM
CC(O)CN1CCC[C@@H](C2CN(c3cnc4c(C#N)nn([C@H](C)c5ccc(Cl)cc5Cl)c4n3)C2)C1 (single isomer, unassigned) [Example 31] | < 100 nM
C[C@H](c1ccc(Cl)cc1Cl)n1nc(C(N)=O)c2ncc(N3CC([C@@H]4CCCN(CCCC(=O)O)C4)C3)nc21 (single isomer, unassigned) [Example 32] | 100 to 500 nM
C[C@H](c1ccc(Cl)cc1Cl)n1nc(C(N)=O)c2ncc(N3CC([C@H]4CCCN(CCCC(=O)O)C4)C3)nc21 (single isomer, unassigned) [Example 33] | < 100 nM

Second part, the compound after the results:

IC50 | SMILES
< 100 nM | C[C@H](c1ccc(Cl)cc1Cl)n1nc(C#N)c2ncc(N3CC(C4CCCN(C5CCS(=O)(=O)CC5)C4)C3)nc21 (mixture of isomers) [Example 61, 1-((R)-1-(2,4-dichlorophenyl)ethyl)-6-(3-((R)-1-(1,1-dioxidotetrahydro-2H-thiopyran-4-yl)piperidin-3-yl)azetidin-1-yl)-1H-pyrazolo[3,4-b]pyrazine-3-carbonitrile and 1-((R)-1-(2,4-dichlorophenyl)ethyl)-6-(3-((S)-1-(1,1-dioxidotetrahydro-2H-thiopyran-4-yl)piperidin-3-yl)azetidin-1-yl)-1H-pyrazolo[3,4-b]pyrazine-3-carbonitrile]
< 100 nM | CC(=O)NCCN1CCCC(C2CN(c3cnc4c(C)nn([C@H](C)c5ccc(Cl)cc5Cl)c4n3)C2)C1 (mixture of isomers) [Example 63, N-(2-((R)-3-(1-(1-((R)-1-(2,4-dichlorophenyl)ethyl)-3-methyl-1H-pyrazolo[3,4-b]pyrazin-6-yl)azetidin-3-yl)piperidin-1-yl)ethyl)acetamide and N-(2-((S)-3-(1-(1-((R)-1-(2,4-dichlorophenyl)ethyl)-3-methyl-1H-pyrazolo[3,4-b]pyrazin-6-yl)azetidin-3-yl)piperidin-1-yl)ethyl)acetamide]
< 100 nM | Cc1nn([C@H](C)c2ccc(Cl)cc2Cl)c2nc(N3CC(C4CCCN(CCNS(C)(=O)=O)C4)C3)cnc12 (mixture of isomers) [Example 64, N-[2-[(R)-3-[1-[1-[(1R)-1-(2,4-dichlorophenyl)ethyl]-3-methyl-pyrazolo[3,4-b]pyrazin-6-yl]azetidin-3-yl]-1-piperidyl]ethyl]methanesulfonamide and N-[2-[(S)-3-[1-[1-[(1R)-1-(2,4-dichlorophenyl)ethyl]-3-methyl-pyrazolo[3,4-b]pyrazin-6-yl]azetidin-3-yl]-1-piperidyl]ethyl]methanesulfonamide]
< 100 nM | Cc1nn([C@H](C)c2ccc(Cl)cc2Cl)c2nc(N3CC(C4CCCN(CCNS(=O)(=O)C(C)C)C4)C3)cnc12 (mixture of isomers) [Example 65, N-(2-((R)-3-(1-(1-((R)-1-(2,4-dichlorophenyl)ethyl)-3-methyl-1H-pyrazolo[3,4-b]pyrazin-6-yl)azetidin-3-yl)piperidin-1-yl)ethyl)propane-2-sulfonamide and N-(2-((S)-3-(1-(1-((R)-1-(2,4-dichlorophenyl)ethyl)-3-methyl-1H-pyrazolo[3,4-b]pyrazin-6-yl)azetidin-3-yl)piperidin-1-yl)ethyl)propane-2-sulfonamide]
< 100 nM | COC(=O)NCCN1CCCC(C2CN(c3cnc4c(C)nn([C@H](C)c5ccc(Cl)cc5Cl)c4n3)C2)C1 (mixture of isomers) [Example 67, Methyl (2-((R)-3-(1-(1-((R)-1-(2,4-dichlorophenyl)ethyl)-3-methyl-1H-pyrazolo[3,4-b]pyrazin-6-yl)azetidin-3-yl)piperidin-1-yl)ethyl)carbamate and methyl (2-((S)-3-(1-(1-((R)-1-(2,4-dichlorophenyl)ethyl)-3-methyl-1H-pyrazolo[3,4-b]pyrazin-6-yl)azetidin-3-yl)piperidin-1-yl)ethyl)carbamate]
> 500 nM | Cc1nn([C@H](C)c2ccc(Cl)cc2Cl)c2nc(N3CC([C@H]4CCCN(CC(=O)O)C4)C3)cnc12 (single isomer, unassigned) [Example 3]
< 100 nM | Cc1nn([C@H](C)c2ccc(Cl)cc2Cl)c2nc(N3CC([C@H]4CCCN(CCCC(=O)O)C4)C3)cnc12 (single isomer, unassigned) [Example 10]
100 to 500 nM | Cc1nn([C@H](C)c2ccc(Cl)cc2Cl)c2nc(N3CC([C@@H]4CCCN(CCCC(=O)O)C4)C3)cnc12 (single isomer, unassigned) [Example 11]
100 to 500 nM | Cc1nn([C@H](C)c2ccc(Cl)cc2Cl)c2nc(N3CC([C@@H]4CCCN(CCC(N)=O)C4)C3)cnc12 (single isomer, unassigned) [Example 12]
< 100 nM | Cc1nn([C@H](C)c2ccc(Cl)cc2Cl)c2nc(N3CC([C@H]4CCCN(CCCO)C4)C3)cnc12 (single isomer, unassigned) [Example 14]
< 100 nM | CC(O)CN1CCC[C@H](C2CN(c3cnc4c(C#N)nn([C@H](C)c5ccc(Cl)cc5Cl)c4n3)C2)C1 (single isomer, unassigned) [Example 28]
< 100 nM | CC(O)CN1CCC[C@H](C2CN(c3cnc4c(C#N)nn([C@H](C)c5ccc(Cl)cc5Cl)c4n3)C2)C1 (single isomer, unassigned) [Example 29]
